Measurements as given in patent US20230348459A1, “PYRROLIDINE COMPOUND AND USE THEREOF” (SIMCERE PHARMACEUTICAL CO., LTD., priority 2020, published 2023).

Columns and labels:
[1] = biological target: estrogen receptors in MCF7 cells (Homo sapiens (Human), UniProt P03372); test: Degradation of estrogen receptors in MCF7 cells (in-cell western); assay type: cell-based; settings: for DC50: 24 hours treatment, read-out: ER level DC50; for Dmax: 24 hours, 0.1 µM fulvestrant = 100% degradation control, read-out: Maximum degradation rate
Procedure: The purpose of the experiment is to determine the degradation activity of the compounds of the present invention on endogenously expressed estrogen receptors in MCF7 cells, and to evaluate the activity of the compounds according to DC50 and maximum degradation efficiency.
MCF7 cells (ATCC, HTB-22) were cultured in DMEM (Gibco, 11995-065) complete medium containing 10% fetal bovine serum. On the first day of the experiment, MCF7 cells were inoculated in a 384-well plate at a density of 3000 cells/well using the complete medium, and cultured in a 37° C., 5% CO2 cell incubator. The compounds to be tested were dissolved in DMSO with a stock concentration of 10 mM, the solution was diluted with Echo 550 (Labcyte Inc.) and added to the cell culture plate. Each compound with the starting concentration for treatment of 100 nM was subjected to 3-fold gradient dilution with 9 concentration points. A blank control containing 0.5% DMSO was set, and double replicate wells as controls were set at each concentration point. The culture was cultured in a 37° C., 5% CO2 cell incubator for 24 hours. Paraformaldehyde was added to the cell culture medium in each cell culture well, and the final concentration of paraformaldehyde was about 3.7% to fix the cells. After the mixture was reacted for 30 minutes, the supernatant was discarded, and 50 µL of PBS was added to each well for washing once. The cells were treated with PBS containing 0.5% v/v Tween-20 for 30 minutes, and washed with PBS once. A blocking solution (PBS containing 5% BSA, 0.05% Tween-20) was added, and the mixture was incubated at room temperature for 1 hour. The blocking solution was removed, a mixture solution of primary antibodies (anti-ER mAb, Estrogen Receptor α (D8H8) Rabbit mAb, GST, # 8644S, 1 : 1000 dilution; anti-GAPDH mAb, GAPDH(D4C6R) Mouse mAb, GST, #97166S, 1 : 2000 dilution) was added, and the mixture was incubated at room temperature for 3 hours. The culture was washed with PBST (PBS containing 0.05% Tween-20) 3 times. Secondary antibodies for detection (800CW-goat anti-rabbit IgG, LI-COR, P/N: 926-32211, 1 : 1000 dilution; 680RD-goat anti-mouse IgG, LI-COR, #925-68070, 1 : 1000 dilution) were added, and the mixture was incubated at room temperature and in the dark for 45 minutes. After washing with PBST 3 times, the fluorescence signal of each well was read using Odyssey CLx, and the value of Chanel 800 (ER)/Chanel 680 (GAPDH) was calculated. The wells treated with 0.1 µM fulvestrant were used as the 100% degradation control, and the degradation rate at each concentration point was calculated. The data were analyzed and processed by XlLfit, and the degradation activity DC50 and the maximum degradation rate Imax of each compound were calculated.

MCF7 cells = test: Inhibition of the proliferation of MCF7 cells (CellTiter-Glo); assay type: cell-based; settings: Homo sapiens, MCF7, 168 h; 7 days treatment; read-out: MCF-7 cell proliferation inhibition IC50
Procedure: The purpose of the experiment is to determine the inhibitory effect of the compounds of the present invention on the proliferation of MCF7 cells in vitro, and to evaluate the activity of the compounds according to IC50 and maximum inhibitory efficiency.
MCF7 cells (ATCC, HTB-22) were cultured in DMEM (Gibco, 11995-065) complete medium containing 10% fetal bovine serum. On the first day of the experiment, MCF7 cells were inoculated in a 384-well plate at a density of 500 cells/well using the complete medium, and cultured in a 37° C., 5% CO2 cell incubator overnight. The next day, the compounds to be tested were added for drug treatment, and the compound solution with a stock concentration of 10 mM was diluted with Echo550 (Labcyte Inc.) and transferred to each cell culture well. Each compound with the starting concentration for treatment of 100 nM in cells was subjected to 3-fold gradient dilution with 9 concentration points. A blank control containing 0.3% DMSO was set, and double replicate wells as controls were set at each concentration point. The culture was cultured in a 37° C., 5% CO2 cell incubator for 7 days, and the cell culture plate was taken out on day 8.

MCF-7 intracranial tumor = test: Growth inhibition in MCF-7 intracranial tumor model in mice; settings: 250 mg/kg SC once weekly
Procedure: Animal information: NPG mice (female, 6-8 weeks, body weight: about 17-29 g) were purchased from Beijing Vitalstar Biotechnology Co., Ltd. The mice were fed in SPF environment and each cage position was individually ventilated.
Cell culture: The human breast cancer MCF-7 cell line was cultured in vitro in EMEM (cell culture medium) supplemented with 10% fetal bovine serum, 1% Pen Strep and 10 µg/ml recombinant human insulin in a 37° C., 5% CO2 incubator. Conventional digestion treatment with 0.25% trypsin-EDTA digestion solution was carried out twice weekly for passage. When the cell saturation was 80%-90%, and the number reached the requirement, the cells were collected and counted.
Cell inoculation: 15 µl/(containing 2 × 10^6) MCF-7 cell suspension was inoculated into the brain of mice using a stereotaxic apparatus, a micro-injection pump and a miniature handheld cranial drill, and the mice were subcutaneously inoculated with 17β-estradiol tablets three days before the cell inoculation. On day 8 after cell inoculation, the mice were randomized into groups for administration according to the body weight thereof, and the day of grouping was Day 0.
11 mice were in the vehicle group and 8 mice were in the administration group. Mice in all groups were continuously administered until the mice died, which were euthanized due to poor state or the end of the experiment.
The body weight of the mice was measured twice weekly, and the survival status of the mice was observed.
At the end of the experiment on Day 48, all mice were euthanized.

Chain of estrogen receptors in MCF7 cells (P03372 whole entry): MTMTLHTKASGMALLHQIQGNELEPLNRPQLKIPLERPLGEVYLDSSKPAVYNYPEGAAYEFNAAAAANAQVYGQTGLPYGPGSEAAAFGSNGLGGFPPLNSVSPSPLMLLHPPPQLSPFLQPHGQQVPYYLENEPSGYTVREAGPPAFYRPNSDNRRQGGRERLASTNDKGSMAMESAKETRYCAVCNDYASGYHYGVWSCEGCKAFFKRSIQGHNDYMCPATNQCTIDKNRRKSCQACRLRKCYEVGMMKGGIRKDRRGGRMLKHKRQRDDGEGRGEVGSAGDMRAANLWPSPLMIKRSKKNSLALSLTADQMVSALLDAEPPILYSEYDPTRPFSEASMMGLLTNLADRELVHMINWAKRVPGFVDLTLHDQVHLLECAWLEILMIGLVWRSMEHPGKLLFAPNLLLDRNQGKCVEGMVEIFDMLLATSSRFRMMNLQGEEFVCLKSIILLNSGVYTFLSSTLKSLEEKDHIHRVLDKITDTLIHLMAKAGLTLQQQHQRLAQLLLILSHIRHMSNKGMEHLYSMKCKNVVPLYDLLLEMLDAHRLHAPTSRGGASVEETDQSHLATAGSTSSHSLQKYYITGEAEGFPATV

Row | Compound | DC50 [1] | Dmax [1] | IC50 (MCF7 cells) | Body weight of mice (MCF-7 intracranial tumor) | Median survival period (MCF-7 intracranial tumor)
1 | C[C@@H]1Cc2c([nH]c3ccccc23)[C@@H](c2c(F)cc(N[C@@H]3CN(CCCF)C[C@H]3F)cc2F)N1CC(F)(F)F (stereo in doubt) [Example 5, trans-N-(3,5-difluoro-4-((1S,3R)-3-methyl-2-(2,2,2-trifluoroethyl)-2,3,4,9-tetrahydro-1H-pyridino[3,4-b]indol-1-yl)phenyl)-4-fluoro-1-(3-fluoropropyl)pyrrolidin-3-amine] | 0.58 nM | 80% | 2.57 nM | – | –
2 | C[C@@H]1CN(CCCF)C[C@H]1Nc1cc(F)c([C@@H]2c3[nH]c4ccccc4c3C[C@@H](C)N2CC(F)(F)F)c(F)c1 (stereo in doubt) [Example 6, trans-N-[3,5-difluoro-4-[(1S,3R)-3-methyl-2-(2,2,2-trifluoroethyl)-1,3,4,9-tetrahydropyridino[3,4-b]indol-1-yl]phenyl]-1-(3-fluoropropyl)-4-methyl-pyrrolidin-3-amine] | 0.5 nM | 90% | 2.39 nM | – | –
3 | C[C@@H]1Cc2c([nH]c3ccccc23)[C@@H](c2ccc(NC3CCN(CCCF)C3)cn2)N1CC(F)(F)F (stereo partly drawn) [Example 1, N-(1-(3-fluoropropyl)pyrrolidin-3-yl)-6-((1S,3R)-3-methyl-2-(2,2,2-trifluoroethyl)-2,3,4,9-tetrahydro-1H-pyridino[3,4-b]indol-1-yl)pyridine-3-amine] | 0.41 nM | 106% | 0.58 nM | – | –
4 | C[C@@H]1Cc2c([nH]c3ccccc23)[C@@H](c2ccc(N[C@@H]3CCN(CCCF)C3)cn2)N1CC(F)(F)F [Example 2] | 8.5 nM | 92% | 15 nM | – | –
5 | C[C@]12CC[C@@H]3c4ccc(O)cc4C[C@@H](CCCCCCCCC[S+]([O-])CCCC(F)(F)C(F)(F)F)[C@H]3[C@@H]1CC[C@@H]2O (some centres unmarked) [Fulvestrant, reference compound] | – | – | – | continued to lose weight | 29.5 days
